Data from US20250228862A1, “METHODS OF USING ATR INHIBITORS” (Repare Therapeutics Inc., priority 2022, published 2025).

What was measured:
[1] = system: ARID1A wild-type (WT) and knockout (ARID1A−/−) HCT116 cells; test: IncuCyte growth (confluency), isogenic ARID1A WT and -/- HCT116; assay type: cell-based, human; conditions: HCT116 ARID1A−/− vs WT
Method: FIG. 11A: Dose-response curves of isogenic ARID1A wild-type (WT) and knockout (ARID1A−/−) HCT116 cells treated with AZD-6738. Cell growth (confluency) was measured by IncuCyte automated microscopy. Data (circles) were fitted to a four-parameter dose-response model (solid lines).
(§1) In addition to the genes disclosed herein, we investigated ATRi sensitivity to the loss of ARID1A, which was previously described in Williamson et al., Nat. Comms., 7:13837, 2016, as a bona fide biomarker of ATRi sensitivity. Three isogenic ARID1A wild-type (WT) and ARID1A-deficient (ARID1A−/−) human cell line pairs were employed: HCT116, MCF10A and BEAS2B. […] To strengthen this observation, we assembled a panel of tissue-matched cancer cell lines that were either ARID1A WT or carried deleterious ARID1A alterations (LOF) and measured their sensitivity to AZD-6738. […] In aggregate, we believe that the genes named in this Application present a list of bona fide determinants of ATRi sensitivity as opposed to certain 5 biomarkers described in the scientific literature.

[2] = system: ARID1A wild-type (WT) and knockout (ARID1A−/−) MCF1A cells; test: IncuCyte growth (confluency), isogenic ARID1A WT and -/- MCF10A; assay type: cell-based, human; conditions: MCF10A ARID1A−/− vs WT
Method: FIG. 11B: Dose-response curves of isogenic ARID1A wild-type (WT) and knockout (ARID1A−/−) MCF1A cells treated with AZD-6738. Cell growth (confluency) was measured by IncuCyte automated microscopy. Data (circles) were fitted to a four-parameter dose-response model (solid lines).
as §1

[3] = system: cancer cell lines either wild-type for ARID1A (WT) or carrying deleterious ARID1A alterations (LOF); test: IncuCyte growth assays in ARID1A WT and LOF cancer cell line panel; assay type: cell-based; conditions: tissue-matched cancer cell line panel
Source text: FIG. 12: EC50 values for the ATRI AZD-6738 from IncuCyte growth assays in a panel of cancer cell lines either wild-type for ARID1A (WT) or carrying deleterious ARID1A alterations (LOF). Data (circles) from two independent experiments with mean (bars)±SD (error bars).
as §1

[4] = system: ARID1A wild-type (WT) and knockout (ARID1A−/−) BEAS2B cells; test: IncuCyte growth (confluency), isogenic ARID1A WT and -/- BEAS2B; assay type: cell-based, human; conditions: BEAS2B ARID1A−/− vs WT
Method: FIG. 11C: Dose-response curves of isogenic ARID1A wild-type (WT) and knockout (ARID1A−/−) BEAS2B cells treated with AZD-6738. Cell growth (confluency) was measured by IncuCyte automated microscopy. Data (circles) were fitted to a four-parameter dose-response model (solid lines).
as §1

C[C@@H]1COCCN1c1cc(C2([S@](C)(=N)=O)CC2)nc(-c2cc[nH]c3nccc2-3)n1 [AZD-6738]
Sensitivity upon ARID1A deficiency [1]: did not lead to sensitivity
Sensitivity upon ARID1A deficiency [2]: did not lead to sensitivity
Sensitivity (EC50) of ARID1A LOF vs ARID1A WT cell lines [3]: no significant trend towards higher ATRi sensitivity in ARID1A LOF cell lines
Sensitivity upon ARID1A deficiency [4]: did not lead to sensitivity
